Measurements as given in patent US5364772A, “DNA molecule encoding the β3 -adrenergic receptor” (Wayne State University, priority 1992, dated 1994).

Legend:
[1] = target: T1, full length (408 amino acids) human β3-adrenergic receptor (Homo sapiens, UniProt P13945); experiment: Functional activity (adenylyl cyclase) at full-length human β3 receptor expressed in CHO cells; assay type: biochemical
T1 construct: CHO cells expressing the full length human β3 receptor are harvested; expressed in transfected cells
Description: Culture medium was removed and cells were washed in phosphate-buffered saline and then harvested in 25 mM HEPES (pH 8.0) buffer containing 2 mM MgCl2 and 1 mM EDTA. Cell were homogenized and centrifuged at 48,000×g for 15 min. to obtain crude membranes. Membrane pellets were resuspended and used directly or frozen at -80° until used. […] Membranes (5-15 μg of protein) were preincubated at 4°, in a volume of 40 μl, with the specified drugs for 15 min. Adenylyl cyclase reactions were initiated by addition of substrate mixture and were terminated after 30 min at 30°. […] Concentration-response data were analyzed by nonlinear regression analysis with a one-site mass action equation for transfected CHO cells (Enzfitter, Elsevier Biosoft).
Chinese hamster ovary (CHO) cells are transfected with constructs based upon the expression vector pRc/CMV. […] Transfection of CHO cells with DNA constructs is accomplished by the CaPO4 -DNA precipitation method as described in Maniatis et al., ibid. To obtain cells that stably express these DNA constructs, transfected cells are selected based upon their resistance to G418, which is conferred by the neomycin-resistance gene contained in pRc/CMV. Cells that survive selective conditions (e.g. 800 μg/ml G418) are then cloned by limiting dilution.
CHO cells expressing the full length human β3 receptor are harvested and membranes prepared as described by Granneman et al., ibid. Adenylyl cyclase activity is then determined in response to various agents known or thought to interact with the β3 receptor, using the method of Salomon, ibid. Agonists are identified by the ability to increase cyclic AMP generation above basal levels. Antagonists are identified by their ability to decrease adenylyl cyclase activity that is stimulated by 100 nM isoproterenol.

[2] = system: truncated (402 amino acids) human β3-adrenergic receptor; conditions: cited from earlier work; for inhibition at the truncated receptor: Emorine et al., 1989
[3] = system: adipose tissue-specific genes; conditions: Kletzien et al., 1992; cited from earlier work

T1 sequence (P13945 whole entry): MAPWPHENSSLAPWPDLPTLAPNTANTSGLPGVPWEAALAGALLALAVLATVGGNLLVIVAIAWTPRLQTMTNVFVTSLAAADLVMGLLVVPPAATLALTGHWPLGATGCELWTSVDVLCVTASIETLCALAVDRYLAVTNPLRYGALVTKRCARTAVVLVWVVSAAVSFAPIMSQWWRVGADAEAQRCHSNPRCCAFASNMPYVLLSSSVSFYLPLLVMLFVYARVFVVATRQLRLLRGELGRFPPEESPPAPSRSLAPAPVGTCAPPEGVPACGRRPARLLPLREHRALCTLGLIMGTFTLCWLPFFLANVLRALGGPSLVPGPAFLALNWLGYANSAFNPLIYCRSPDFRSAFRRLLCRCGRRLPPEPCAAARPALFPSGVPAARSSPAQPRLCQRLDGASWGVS

For CC(Cc1ccc(OCC(=O)O)cc1)NCC(O)c1cccc(Cl)c1 (stereo not shown) [BRL 37344], which agonist character ([1]; full length receptor) is on record?
Its agonist character is “partial agonists”.

What about the activation potency ([1]; full-length receptor) of the same compound?
Its activation potency is “relatively low potency”.

What about the agonist character [2] of the same compound?
The agonist character was “partial agonists”.

For CC1(COc2ccc(CC3SC(=O)NC3=O)cc2)CCCCC1 (stereo not shown) [Cigilazone], which “effect on expression of adipose tissue-specific genes” value [3] is on record?
Its value is “augment the expression of adipose tissue-specific genes”.

With CC(C)NCC(O)COc1cccc2ccccc12 (stereo not shown) [Propranolol] as the compound, how does the “inhibition at the truncated receptor” value [2] read?
Its value is “essentially inactive”.

Which results are given for C=CCc1ccccc1OCC(O)CNC(C)C (stereo not shown) [alprenolol]?
potency of inhibition of the full length receptor (antagonists) ([1]; full length receptor): submicromolar potencies; inhibition at the truncated receptor [2]: essentially inactive
